According to US10584115B2, “Substituted pyridine and pyrazine BMI-1 inhibitors” (PTC Therapeutics, Inc., priority 2013, dated 2020):

test system: Bmi-1 protein; assay: Sandwich ELISA Assay (Bmi-1 protein level in HT-1080 cells after compound treatment); format: cell-based; conditions: Table 1, Bmi-1 sandwich ELISA, read-out: ELISA EC50 value for Bmi-1 protein
Protocol: Cell Seeding and Compound Treatment (Day 1):
HT-1080 cells were seeded at 8000 cells/well (50 μL) in 96-well tissue culture plates. After the cells became adherent (3-4 hours), 2× diluted stocks of test compounds in 50 μL DMEM containing 1% DMSO (final DMSO concentration was 0.5%) were added and the plates were incubated at 37° C. under 5% CO2 for 40-48 hours.
ELISA Plate First Antibody Preparation (Day 2):
The First Antibody (Millipore Mouse, monoclonal to mouse Bmi-1, clone F6, catalog #05-637) diluted to […] in PBS was added (100 μL) to each well of a Nunc MaxiSorp 96-well ELISA plate. The plate was covered with a plate seal and allowed to stand overnight.
Cell Lysate Preparation (Day 3):
Fresh Lysis buffer (1×) was prepared on the day of the assay as follows: 1 mM EDTA, 150 mM NaCl, 0.5% Triton-X 100, 10 mM NaF, 20 mM B-Glycerophosphate, 1 mM DTT (in PBS, pH 7.2-7.4) and HALT protease inhibitor cocktail (lx) (Pierce #78410).
A standard curve was prepared at the following Bmi-1 concentrations: 8000, 4000, 2000, 1000, 500, 250, 125 and 0 pg/mL. The Bmi-1 Recombinant Protein Standard (Novus Biologicals PCGF4 Recombinant Protein (P01), catalog # H00000648-P01) used to prepare the standard curve was stored at −80° C. On first thaw, the Recombinant Protein Standard was diluted to 10 μg/L in Blocking Buffer (1% BSA in PBS; BSA: Fisher Scientific Catalog #1600-100). Aliquots were taken and refrozen at −80° C. The aliquots may be kept at 4° C. and reused after first thaw, but only within 1-2 weeks. The Recombinant Protein Standard contains a GST-fusion tag that appears at approximately 70 Kda on Western Blot.
The prepared ELISA plate was washed 3× with Wash Buffer (0.05% Tween-20 in PBS). The final wash was removed from the plate and the plate was blotted dry. Blocking Buffer (300 μL) (1% BSA in PBS) was added to each well. The plate was covered with a plate seal and incubated at room temperature for 1 hour. The blocked plate was washed 3× with Wash Buffer, then the final wash was removed and the plate was blotted dry. The previously prepared samples and standards were added ([…]) and the plate was covered with a plate seal and incubated at 4° C. overnight.
The prepared ELISA plate was removed from incubation and allowed to stand at room temperature for 30 minutes, then washed and blotted dry. The Second Antibody (Cell Signaling Rabbit anti-Bmi-1, Cat #2830) diluted to 1:600 in Blocking Buffer was added (100 μL) to each well, except as needed for background control wells. The plate was covered with a plate seal and incubated for 1.5 hrs at room temperature.
The ELISA plate was washed and blotted dry as previously described. The Third Antibody (Cell Signaling HRP conjugated anti-rabbit IgG (CellSignaling, Cat #:7074) diluted to 1:300 in Blocking Buffer was added (100 μL) to each well, except as needed for background control wells. The plate was incubated for 1 hr at room temperature.
The plate was washed and blotted dry, then a previously prepared TMB substrate (TMB substrate kit, Pierce catalog #34021) (prepared by mixing kit reagents 1:1) (100 μL) was added per well. The plate was incubated for 20-30 minutes at room temperature in the dark, then Stop Solution (2 M sulfuric acid in water) (50 μL) was added per well. The plates were read at OD450 (experimental) and OD570 (reference).

EC50 [nM]	Compound
10 to 100	FC(F)(F)c1ccc(Nc2cncc(-c3c(C(F)(F)F)nc4ccccn34)n2)nc1 [Cpd 190, 6-[2-(trifluoromethyl)imidazo[1,2-a]pyridin-3-yl]-N-[5-(trifluoromethyl)pyridin-2-yl]pyrazin-2-amine]
1 to 10	COc1ncc(Nc2cncc(-c3c(C(F)(F)F)nc4ccccn34)n2)cn1 [Cpd 201, 2-methoxy-N-{6-[2-(trifluoromethyl)imidazo[1,2-a]pyridin-3-yl]pyrazin-2-yl}pyrimidin-5-amine]
10 to 100	Fc1cc(Nc2cncc(-c3c(C(F)(F)F)nc4ccccn34)n2)ccc1C(F)(F)F [Cpd 208, N-[3-fluoro-4-(trifluoromethyl)phenyl]-6-[2-(trifluoromethyl)imidazo[1,2-a]pyridin-3-yl]pyrazin-2-amine]
1 to 10	N#Cc1cc(Nc2ccc(OC(F)F)cc2)nc(-c2c(C(F)(F)F)nc3ccccn23)c1 [Cpd 217, 2-{[4-(difluoromethoxy)phenyl]amino}-6-[2-(trifluoromethyl)imidazo[1,2-a]pyridin-3-yl]pyridine-4-carbonitrile]
10 to 100	OCc1cc(Nc2ccc(C(F)(F)F)cc2)nc(-c2c(C(F)(F)F)nc3ccccn23)c1 [Cpd 219, (2-[2-(trifluoromethyl)imidazo[1,2-a]pyridin-3-yl]-6-{[4-(trifluoromethyl)phenyl]amino}pyridin-4-yl)methanol]
1 to 10	FC(F)Oc1ccc(Nc2cncc(-c3c(C(F)(F)F)nc4n3CCCC4)n2)cc1 [Cpd 233, N-[4-(difluoromethoxy)phenyl]-6-[2-(trifluoromethyl)-5,6,7,8-tetrahydroimidazo[1,2-a]pyridin-3-yl]pyrazin-2-amine]
10 to 100	FC(F)(F)Oc1ccc(Nc2cncc(-c3c(C(F)(F)F)nc4n3CCCC4)n2)cc1 [Cpd 234, N-[4-(trifluoromethoxy)phenyl]-6-[2-(trifluoromethyl)-5,6,7,8-tetrahydroimidazo[1,2-a]pyridin-3-yl]pyrazin-2-amine]
1 to 10	N#Cc1cc(Nc2ccc(OC(F)F)cc2)nc(-c2c(C(F)(F)F)nc3n2CCCC3)c1 [Cpd 237, 2-{[4-(difluoromethoxy)phenyl]amino}-6-[2-(trifluoromethyl)-5,6,7,8-tetrahydroimidazo[1,2-a]pyridin-3-yl]pyridine-4-carbonitrile]
100 to 3000	N#Cc1cc(Nc2ccc(OC(F)(F)F)cc2)nc(-c2c(C(F)(F)F)nc3n2CCCC3)c1 [Cpd 238, 2-{[4-(trifluoromethoxy)phenyl]amino}-6-[2-(trifluoromethyl)-5,6,7,8-tetrahydroimidazo[1,2-a]pyridin-3-yl]pyridine-4-carbonitrile]
100 to 3000	CC(N)c1ccc(Nc2cc(C#N)cc(-c3c(C(F)(F)F)nc4ccccn34)n2)cc1 (stereo not shown) [Cpd 257, 2-(4-(1-aminoethyl)phenylamino)-6-(2-(trifluoromethyl)imidazo[1,2-a]pyridin-3-yl)isonicotinonitrile]
100 to 3000	Cc1cnc(C)n1-c1cncc(Nc2ccc(C(F)(F)F)cc2)n1 [Cpd 355, 6-(2,5-dimethyl-1H-imidazol-1-yl)-N-[4-(trifluoromethyl)phenyl]pyrazin-2-amine]
100 to 3000	CCc1cnc(C)n1-c1cncc(Nc2ccc(C(F)(F)F)cc2)n1 [Cpd 372, 6-(5-ethyl-2-methyl-1H-imidazol-1-yl)-N-[4-(trifluoromethyl)phenyl]pyrazin-2-amine]
100 to 3000	Cc1cc2nc(C)n(-c3cc(C#N)cc(Nc4ccc(C(F)(F)F)cc4)n3)c2cc1C [Cpd 389, 2-{[4-(trifluoromethyl)phenyl]amino}-6-(2,5,6-trimethyl-1H-benzimidazol-1-yl)pyridine-4-carbonitrile]
100 to 3000	CCO/C=C\c1cn(-c2cncc(Nc3ccc(C(F)(F)F)cc3)n2)c(C)n1 [Cpd 391, 6-{4-[(Z)-2-ethoxyethenyl]-2-methyl-1H-imidazol-1-yl}-N-[4-(trifluoromethyl)phenyl]pyrazin-2-amine]
100 to 3000	CCc1ccc2nc(C)n(-c3cncc(Nc4ccc(C(F)(F)F)cc4)n3)c2c1 [Cpd 392, 6-(6-ethyl-2-methyl-1H-benzimidazol-1-yl)-N-[4-(trifluoromethyl)phenyl]pyrazin-2-amine]
10 to 100	Cc1cc(C)c2nc(C)n(-c3cncc(Nc4ccc(C(F)(F)F)cc4)n3)c2c1 [Cpd 421, N-[4-(trifluoromethyl)phenyl]-6-(2,4,6-trimethyl-1H-benzimidazol-1-yl)pyrazin-2-amine]
10 to 100	Cc1nc2c(F)cccc2n1-c1cc(C#N)cc(Nc2ccc(C(F)(F)F)cc2)n1 [Cpd 435, 2-(4-fluoro-2-methyl-1H-benzimidazol-1-yl)-6-{[4-(trifluoromethyl)phenyl]amino}pyridine-4-carbonitrile]
10 to 100	Cc1nc2c(F)cccc2n1-c1cc(C#N)cc(Nc2ccc(OC(F)F)cc2)n1 [Cpd 436, 2-{[4-(difluoromethoxy)phenyl]amino}-6-(4-fluoro-2-methyl-1H-benzimidazol-1-yl)pyridine-4-carbonitrile]
10 to 100	Cc1nc2c(F)cc(F)cc2n1-c1cc(C#N)cc(Nc2ccc(C(F)(F)F)cc2)n1 [Cpd 447, 2-(4,6-difluoro-2-methyl-1H-benzimidazol-1-yl)-6-{[4-(trifluoromethyl)phenyl]amino}pyridine-4-carbonitrile]
10 to 100	Cc1nc2c(F)cc(F)cc2n1-c1cc(C#N)cc(Nc2ccc(OC(F)F)cc2)n1 [Cpd 448, 2-{[4-(difluoromethoxy)phenyl]amino}-6-(4,6-difluoro-2-methyl-1H-benzimidazol-1-yl)pyridine-4-carbonitrile]
100 to 3000	Cc1nc2c(F)cc(F)cc2n1-c1cc(C#N)cc(Nc2ccc(OC(F)(F)F)cc2)n1 [Cpd 449, 2-(4,6-difluoro-2-methyl-1H-benzimidazol-1-yl)-6-{[4-(trifluoromethoxy)phenyl]amino}pyridine-4-carbonitrile]
100 to 3000	Cc1nc2ccccc2n1-c1cc(F)cc(Nc2ccc(C(F)(F)F)cc2[N+](=O)[O-])n1 [Cpd 493, 4-fluoro-6-(2-methyl-1H-benzimidazol-1-yl)-N-[2-nitro-4-(trifluoromethyl)phenyl]pyridin-2-amine]

same assay, conditions: read-out: ELISA EC50 value for Bmi-1 protein, Table 1, Bmi-1 sandwich ELISA

Compound	EC50 [nM]
Cc1nc2ccccc2n1-c1cc(C(N)=O)cc(Nc2ccc(C(F)(F)F)cc2)n1 [Cpd 203, 2-(2-methyl-1H-benzimidazol-1-yl)-6-{[4-(trifluoromethyl)phenyl]amino}pyridine-4-carboxamide]	100 to 3000
FC(F)(F)c1ccc(Nc2cncc(-c3c(C(F)(F)F)nc4n3CCCC4)n2)cc1 [Cpd 232, N-[4-(trifluoromethyl)phenyl]-6-[2-(trifluoromethyl)-5,6,7,8-tetrahydroimidazo[1,2-a]pyridin-3-yl]pyrazin-2-amine]	1 to 10
N#Cc1cc(Nc2ccc(C(F)(F)F)cc2)nc(-c2c(C(F)(F)F)nc3n2CCCC3)c1 [Cpd 236, 2-{[4-(trifluoromethyl)phenyl]amino}-6-[2-(trifluoromethyl)-5,6,7,8-tetrahydroimidazo[1,2-a]pyridin-3-yl]pyridine-4-carbonitrile]	10 to 100
COc1ccc(Nc2ccc(N)c(-c3c(C(F)(F)F)nc4ccccn34)n2)cc1 [Cpd 282, N^2-(4-methoxyphenyl)-6-[2-(trifluoromethyl)imidazo[1,2-a]pyridin-3-yl]pyridine-2,5-diamine]	100 to 3000
Cc1nc(Cl)c(Cl)n1-c1cncc(Nc2ccc(C(F)(F)F)cc2)n1 [Cpd 297, 6-(4,5-dichloro-2-methyl-1H-imidazol-1-yl)-N-[4-(trifluoromethyl)phenyl]pyrazin-2-amine]	100 to 3000
Cc1nc2ccccc2n1-c1cc(N)cc(Nc2ccc(C(F)(F)F)cc2)n1 [Cpd 492, 6-(2-methyl-1H-benzimidazol-1-yl)-N^2-[4-(trifluoromethyl)phenyl]pyridine-2,4-diamine]	10 to 100
